Experimental findings from patent US20200197461A1, “NOVEL CANNABIS SATIVA LINES AND EXTRACTS WITH ANTI-CANCER PROPERTIES” (Pathway RX Inc., priority 2018, published 2020) are described below.

The test system of the experiment is HCC1806 breast cancer cells. In words: MTT proliferation assay on HCC1806 cells. Format: cell-based, human. The procedure:
HCC 1806—Primary Acantholytic Squamous Cell Carcinoma
(Colorimetric assays using the tetrazolium salt thiazolyl blue, also termed MTT, after methyl-thiazolyl-tetrazolium)
Around 1500 cells are in placed in each well in 96 well plates, 10 extracts (tested 2 concentrations each, 0.007 mg/ml and 0.015 μg/μl) were added to separate wells. Untreated cells and DMSO-treated cells were used as controls in separate wells. Experiments were performed in triplicate. A total number of 9×10^4 cells are required at each concentration. The well plates were purchased from Sigma Aldrich.
Mix cells and medium nicely, add 150 μl per well, plate eight 96-well plates for each experiment.
Place 96-well plates in a 37° C. incubator with 5% CO2. After 24 hours, the medium was changed to the medium containing extracts.
The MTT assay was performed from Day 0 to Day 7 by adding 15 μl MTT labeling reagent into each well and incubated at 37° C. for 4 hours. Thereafter, 150 μl solubilization solution was added into each well and incubated overnight in the 37° C. incubator with 5% CO2.
3-(4,5-Dimethylthiazol-2-yl)-2,5-diphenyltetrazolium bromide assays were performed using the Cell Proliferation Kit I (Roche Diagnostics GmbH) as the manufacturer's instructions. The absorbance of the samples was measured at 595 nm using a microtiter plate reader (FLUOstar Omega, BMG LABTECH). The experiments were done in triplicate.
On the technique in general: Formazan colour is commonly taken as a measure of viable cells.

Several values for one entry are separate records, joined by “and”; a condition that tells them apart may be missing. Equal values may be shown once.

On to `C=C(C)[C@@H]1CCC(C)=C[C@H]1c1c(O)cc(CCCCC)cc1O` [CBD, cannabidiol], for which the “effective (active) concentration on HCC1806 cancer cells” value (pure cannabinoid) was 15 to 20 µM and 15 µM. The “effective concentration on HCC1806 cancer cells, converted” value (pure cannabinoid, conversion of 15 μM) came out at 0.0047 µg/µL.

In the case of `CCCCCc1cc(O)c2c(c1)OC(C)(C)[C@@H]1CCC(C)=C[C@@H]21` [THC, tetrahydrocannabinol], the “effectiveness of pure cannabinoid on HCC1806 cancer cells” value (20 μM (0.0063 μg/μl)) is “only marginally and insignificantly effective”.
